Assays:
Format in all cases: cell-based, Human
[1] = test system: KATO III (FGFR2 amp); assay: In vitro growth inhibition of KATO III tumor cells (MTT/CCK8); settings: Homo sapiens, KATO III; in vitro growth inhibition (or induction of apoptosis), cells cultured 3 to 5 days, MTT (CCK8); read-out: IC50 KATO III (FGFR2 amp)
Source text: (§1) Tumor cell lines are an effective model for studying in vitro tumor growth inhibition. In the present invention, a representative tumor cell line was selected to determine the cell growth inhibition activity of the present compound. All cell lines used were from ATCC, DSMZ, and cell banks of the Chinese Academy of Sciences. Cell culture conditions and methods were in accordance with the requirements of each cell line. Cells were subcultured in vitro for no more than 3 generations each time, and as required, single-clone purification and identification of cell lines could be carried out.
(§2) The cell culture media used were RPMI1640 (Gibco), DMEM (Gibco), MEM (Gibco), L15 (Gibco), IMDM (Gibco), McCOY'S5A, and William's (Gibco). 5-20% fetal bovine serum (Gibco), 1% double antibiotic, 2 mM glutamine, or 1 mM sodium pyruvate were added. The names, species, major gene characteristics, culture media and cell sources of the cell lines used are shown in table 1, wherein “amp” refers to gene amplification. “+++” refers to gene overexpression. The main genetic characteristics of cells were obtained from the COSMIC Cell Lines Project and related research papers, respectively.
(§3) Adherent cells were digested with 0.25% trypsin-EDTA (Gibco). Suspension culture cells were collected by centrifugation (1700 rpm, 3 minutes). The supernatant was discarded and the cells were counted. According to each cell growth cycle, different concentrations of cells were prepared (5˜10×10^4 cells per ml), and inoculated to 96-well plates (Corning), with 100 μl per well, and incubated overnight at 37° C., 5% CO2. The next day, the test compound was added to the cultured cells (2 wells in parallel). The final concentration of the solvent was less than 1/1,000. The cells were further cultured for 3 to 5 days and assayed by MTT.
(§4) The compound was stored at a concentration of 10 mM at −20° C. and diluted to 2- or 10-fold series prior to use. BGJ398 and AC220 were synthesized according to the methods of WO2006420A1 and US2007232604A1, respectively.
(§5) The adherent cells were taken out from the cell culture medium, and immediately added to a freshly prepared complete medium containing 10% CCK8 (5% FBS), 100 ul per hole. The suspended cells were directly added to a CCK8 reagent until reaching a final concentration of 10% and cultured for 1 to 4 hours.
(§6) T=optical density of drug-treated cell wells−optical density of blank control wells; T0=optical density of cell wells before drug treatment−optical density of blank control wells; C=optical density of solvent control wells−optical density of blank control wells. […] The experiments were repeated 1 to 3 times and a statistical analysis of data was conducted.

[2] = test system: H1581 (FGFR1 amp); assay: In vitro growth inhibition of H1581 tumor cells (MTT/CCK8); settings: Homo sapiens, NCI-H1581; in vitro growth inhibition (or induction of apoptosis), cells cultured 3 to 5 days, MTT (CCK8); read-out: IC50 H1581 (FGFR1 amp)
Source text: as §1, §2, §3, §4, §5, §6

[3] = test system: MOLM-13 (FLT3-ITD); assay: In vitro growth inhibition of MOLM-13 tumor cells (MTT/CCK8); settings: Homo sapiens, MOLM-13; in vitro growth inhibition (or induction of apoptosis), cells cultured 3 to 5 days, MTT (CCK8); read-out: IC50 MOLM-13 (FLT3-ITD)
Source text: as §1, §2, §3, §4, §5, §6

SMILES: COCCOc1cc2nccc(Oc3ccc(NC(=O)Nc4cc(C(C)(C)C)n[nH]4)cc3)c2cc1NC(C)=O [Compound 116, N-[4-{4-[3-(5-tert-butyl-2H-pyrazol-3-yl)-ureido]-phenoxy}-7-(2-methoxy-ethoxy)-quinolin-6-yl]-acetamide]
- IC50 [1]: 1.97 nM
- IC50 [2]: 9.01 nM
- IC50 [3]: 0.095 nM

SMILES: COCCOc1cc2nccc(Oc3ccc(NC(=O)Nc4cc(C(C)(C)C)nn4C)cc3)c2cc1NC(C)=O [Compound 117, N-[4-{4-[3-(5-tert-butyl-2-methyl-2H-pyrazol-3-yl)-ureido]-phenoxy}-7-(2-methoxy-ethoxy)-quinolin-6-yl]-acetamide]
- IC50 [1]: 0.17 nM
- IC50 [2]: 9.72 nM
- IC50 [3]: 0.25 nM

SMILES: COCCOc1cc2nccc(Oc3ccc(NC(=O)Nc4cc(C(C)(C)C)nn4C4CC4)cc3)c2cc1NC(C)=O [Compound 118]
- IC50 [1]: 0.38 nM
- IC50 [2]: 19.3 nM
- IC50 [3]: 0.11 nM

SMILES: COCCOc1cc2nccc(Oc3ccc(NC(=O)Nc4cc(C(C)(C)C)nn4CCN(C)C)cc3)c2cc1NC(C)=O [Compound 119, N-[4-(4-{3-[5-tert-butyl-2-(2-dimethylamino-ethyl)-2H-pyrazol-3-yl]-ureido}-phenoxy)-7-(2-methoxyethoxy)-quinolin-6-yl]-acetamide]
- IC50 [1]: 6.87 nM
- IC50 [2]: 78.9 nM
- IC50 [3]: < 0.05 nM

SMILES: COCCOc1cc2nccc(Oc3ccc(NC(=O)Nc4cc(C(C)(C)C)nn4C4CCNCC4)cc3)c2cc1NC(C)=O [Compound 120, N-[4-{4-[3-(5-tert-butyl-2-piperidin-4-yl-2H-pyrazol-3-yl)-ureido]-phenoxy}-7-(2-methoxy-ethoxy)-quinolin-6-yl]-acetamide]
- IC50 [1]: 13.5 nM
- IC50 [2]: 78.6 nM
- IC50 [3]: 0.55 nM

SMILES: COCCOc1cc2nccc(Oc3ccc(NC(=O)Nc4cc(C(C)(C)C)nn4C4CCN(C)CC4)cc3)c2cc1NC(C)=O [Compound 121]
- IC50 [1]: 0.5 nM
- IC50 [2]: 19.5 nM
- IC50 [3]: 0.61 nM

SMILES: COCCOc1cc2nccc(Oc3ccc(NC(=O)Nc4cc(C(C)(C)C)nn4CCN4CCOCC4)cc3)c2cc1NC(C)=O [Compound 122]
- IC50 [1]: 0.27 nM
- IC50 [2]: 69.4 nM
- IC50 [3]: 0.6 nM

SMILES: COCCOc1cc2nccc(Oc3ccc(NC(=O)Nc4cc(C(C)(C)C)nn4CCN4CCOCC4)c(Cl)c3)c2cc1NC(C)=O [Compound 123, N-[4-(4-{3-[5-tert-butyl-2-(2-morpholin-4-yl-ethyl)-2H-pyrazol-3-yl]-ureido}-3-chloro-phenoxy)-7-(2-methoxy-ethoxy)-quinolin-6-yl]-acetamide]
- IC50 [1]: < 0.05 nM
- IC50 [2]: 9.1 nM
- IC50 [3]: 1.22 nM

SMILES: COCCOc1cc2nccc(Oc3ccc(NC(=O)Nc4cc(C(C)(C)C)nn4C)c(Cl)c3)c2cc1NC(C)=O [Compound 124, N-[4-{4-[3-(5-tert-butyl-2-methyl-2H-pyrazol-3-yl)-ureido]-3-chloro-phenoxy}-7-(2-methoxy-ethoxy)-quinolin-6-yl]-acetamide]
- IC50 [1]: 0.31 nM
- IC50 [2]: 4.6 nM
- IC50 [3]: 1.01 nM

SMILES: COCCOc1cc2nccc(Oc3ccc(NC(=O)Nc4cc(C(C)(C)C)nn4C4CCN(C)CC4)c(Cl)c3)c2cc1NC(C)=O [Compound 126, N-[4-(4-{3-[5-tert-butyl-2-(1-methyl-piperidin-4-yl)-2H-pyrazol-3-yl]-ureido}-3-chloro-phenoxy)-7-(2-methoxy-ethoxy)-quinolin-6-yl]-acetamide]
- IC50 [1]: 0.41 nM
- IC50 [2]: 1.41 nM
- IC50 [3]: 7.62 nM

SMILES: COCCOc1cc2nccc(Oc3ccc(NC(=O)Nc4cc(C(C)(C)C)nn4CCN(C)C)c(Cl)c3)c2cc1NC(C)=O [Compound 127, N-[4-{4-[3-(5-tert-butyl-2-dimethylamino-ethyl-2H-pyrazol-3-yl)-ureido]-3-chloro-phenoxy}-7-(2-methoxy-ethoxy)-quinolin-6-yl]-acetamide]
- IC50 [1]: 0.27 nM
- IC50 [2]: 1.26 nM
- IC50 [3]: 2.56 nM

SMILES: COCCOc1cc2nccc(Oc3ccc(NC(=O)Nc4cc(C(C)(C)C)n[nH]4)c(F)c3)c2cc1NC(C)=O [Compound 128, N-[4-{4-[3-(5-tert-butyl-2H-pyrazol-3-yl)-ureido]-3-fluoro-phenoxy}-7-(2-methoxy-ethoxy)-quinolin-6-yl]-acetamide]
- IC50 [1]: 0.1 nM
- IC50 [2]: 2.01 nM
- IC50 [3]: 3.91 nM

SMILES: COCCCOc1cc2nccc(Oc3ccc(NC(=O)Nc4cc(C(C)(C)C)n[nH]4)c(Cl)c3)c2cc1NC(C)=O [Compound 129, N-[4-{4-[3-(5-tert-butyl-2H-pyrazol-3-yl)-ureido]-3-chloro-phenoxy}-7-(3-methoxy-propoxy)-quinolin-6-yl]-acetamide]
- IC50 [1]: 0.34 nM
- IC50 [2]: 4.78 nM
- IC50 [3]: 4.88 nM

SMILES: CC(=O)Nc1cc2c(Oc3ccc(NC(=O)Nc4cc(C(C)(C)C)n[nH]4)c(Cl)c3)ccnc2cc1OCCCN1CCN(C)CC1 [Compound 130, N-{4-{4-[3-(5-tert-butyl-2H-pyrazol-3-yl)-ureido]-3-chloro-phenoxy}-7-[3-(4-methy-piperazin-1-yl)-propoxy]-quinolin-6-yl}-acetamide]
- IC50 [1]: 0.54 nM
- IC50 [2]: 1.12 nM
- IC50 [3]: 4.96 nM

SMILES: CC(=O)Nc1cc2c(Oc3ccc(NC(=O)Nc4cc(C(C)(C)C)n[nH]4)c(Cl)c3)ccnc2cc1OCCO [Compound 131]
- IC50 [1]: 11.6 nM
- IC50 [2]: 19.5 nM
- IC50 [3]: 14.7 nM

SMILES: CC(=O)Nc1cc2c(Oc3ccc(NC(=O)Nc4cc(C(C)(C)C)n[nH]4)c(Cl)c3)ccnc2cc1OCCN1CCOCC1 [Compound 132, N-[4-{4-[3-(5-tert-butyl-2H-pyrazol-3-yl)-ureido]-3-chloro-phenoxy}-7-(2-morpholin-4-yl-ethoxy)-quinolin-6-yl]-acetamide]
- IC50 [1]: 1.34 nM
- IC50 [2]: 3.91 nM
- IC50 [3]: 0.98 nM

SMILES: COCCOc1cc2nccc(Oc3ccc(NC(=O)Nc4cc(C(C)(C)C)n[nH]4)c(C)c3)c2cc1NC(C)=O [Compound 133, N-[4-{4-[3-(5-tert-butyl-2H-pyrazol-3-yl)-ureido]-3-methyl-phenoxy}-7-(2-methoxy-ethoxy)-quinolin-6-yl]-acetamide]
- IC50 [1]: 1.56 nM
- IC50 [2]: 8.04 nM
- IC50 [3]: 1.13 nM

SMILES: COCCOc1cc2nccc(Oc3ccc(NC(=O)Nc4cc(C(C)(C)C)nn4C4CC4)cc3F)c2cc1NC(C)=O [Compound 134]
- IC50 [1]: 0.3 nM
- IC50 [2]: 12.4 nM
- IC50 [3]: < 0.05 nM

SMILES: COCCOc1cc2nccc(Oc3ccc(NC(=O)Nc4cc(C(C)(C)C)nn4C)cc3Cl)c2cc1NC(C)=O [Compound 135, N-[4-{4-[3-(5-tert-butyl-2-methyl-2H-pyrazol-3-yl)-ureido]-2-chloro-phenoxy}-7-(2-methoxy-ethoxy)-quinolin-6-yl]-acetamide]
- IC50 [1]: 0.22 nM
- IC50 [2]: 19.5 nM
- IC50 [3]: 0.11 nM

SMILES: COCCOc1cc2nccc(Oc3ccc(NC(=O)Nc4cc(C(C)(C)C)nn4CCN4CCOCC4)cc3F)c2cc1NC(C)=O [Compound 136, N-[4-(4-{3-[5-tert-butyl-2-(2-morpholin-4-yl-ethyl)-2H-pyrazol-3-yl]-ureido}-2-fluoro-phenoxy)-7-(2-methoxy-ethoxy)-quinolin-6-yl]-acetamide]
- IC50 [1]: 0.4 nM
- IC50 [2]: 39 nM
- IC50 [3]: 0.05 nM

SMILES: COCCOc1cc2nccc(Oc3ccc(NC(=O)Nc4cc(C(C)(C)C)nn4CCN4CCOCC4)cc3Cl)c2cc1NC(C)=O [Compound 137, N-[4-(4-{3-[5-tert-butyl-2-(2-morpholin-4-yl-ethyl)-2H-pyrazol-3-yl]-ureido}-2-chloro-phenoxy)-7-(2-methoxy-ethoxy)-quinolin-6-yl]-acetamide]
- IC50 [1]: 1.21 nM
- IC50 [2]: 41.2 nM
- IC50 [3]: 0.34 nM

SMILES: CC(C)(C)c1cc(NC(=O)Nc2ccc(Oc3ccnc4cc(OCCCN5CCOCC5)c(C(N)=O)cc34)cc2Cl)[nH]n1 [Compound 138, 4-{4-[3-(5-tert-butyl-2H-pyrazol-3-yl)-ureido]-3-chloro-phenoxy}-7-(3-morpholin-4-yl-propoxy)-quinolin-6-carboxamide]
- IC50 [1]: 18.2 nM
- IC50 [2]: 97.3 nM
- IC50 [3]: 21.3 nM

SMILES: CN1CCN(CCCOc2cc3nccc(Oc4ccc(NC(=O)Nc5cc(C(C)(C)C)nn5C5CCCC5)c(Cl)c4)c3cc2C(N)=O)CC1 [Compound 139]
- IC50 [1]: 1.14 nM
- IC50 [2]: 3.44 nM
- IC50 [3]: 9.87 nM

From patent US10800741B2 (ANCUREALL PHARMACEUTICAL (SHANGHAI) CO., LTD., priority 2017, dated 2020)
